Values quoted from earlier work, collected in patent US20240216299A1, “TRANSMUCOSAL THERAPEUTIC SYSTEM CONTAINING AGOMELATINE” (LTS LOHMANN Therapie-Systeme AG, priority 2019, published 2024).

[1] = patients with moderate hepatic impairment compared to healthy subjects

In the case of `COc1ccc2cccc(CCNC(C)=O)c2c1` [agomelatine, N-(2-(7-Methoxy-1-naphthyl)ethyl)acetamide], the oral absorption (oral) is given as > 80%, the overall bioavailability (oral) is given as “less than 5%” and the “increase in AUC” value [1] is given as “up to 140 fold”. For the same molecule, the “increase in Cmax” value [1] was “up to 140 fold”.
